Data published in patent US20090023721A1, “Novel Substituted Tetracyclic Tetrahydrofuran, Pyrrolidine and Tetrahydrothiophene Derivatives and Their Use as a Medicament” (priority 2005, published 2009).
pIC50: −log10 of the molar value. Read-outs that look alike come from different tables or passages of the source.

Experiments:
[1] = target: T1, human cloned 5-HT2A receptor, expressed in L929 cells (Homo sapiens, UniProt P28223); test: In vitro radioligand binding affinity for 5-HT2A receptor ([125I]R91150); details: for IC50 / h-5HT2A: human cloned 5-HT2A receptor in L929 cells, [125I]R91150; for IC50: read-out: h-5HT2A (converted)
T1 construct: expressed in transfected cells; host or cells: L929 cells
T1 sequence (P28223 whole entry): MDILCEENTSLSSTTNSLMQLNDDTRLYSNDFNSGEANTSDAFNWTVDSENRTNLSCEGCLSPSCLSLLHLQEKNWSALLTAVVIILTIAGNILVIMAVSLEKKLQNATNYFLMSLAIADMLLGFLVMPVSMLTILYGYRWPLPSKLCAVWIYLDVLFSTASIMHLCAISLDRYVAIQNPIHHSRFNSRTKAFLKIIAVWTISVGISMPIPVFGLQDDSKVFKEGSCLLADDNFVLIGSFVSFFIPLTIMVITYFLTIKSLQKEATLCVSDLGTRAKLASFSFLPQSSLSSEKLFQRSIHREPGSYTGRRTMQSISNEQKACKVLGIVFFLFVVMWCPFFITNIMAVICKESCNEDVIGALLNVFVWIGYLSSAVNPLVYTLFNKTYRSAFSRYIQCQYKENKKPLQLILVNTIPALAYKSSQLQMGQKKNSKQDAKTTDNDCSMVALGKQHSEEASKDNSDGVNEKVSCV
Procedure: The interaction of the compounds of Formula (I) with 5-HT2A and 5-HT2C receptors was assessed in in vitro radioligand binding experiments. In general, a low concentration of a radioligand with a high binding affinity for the receptor is incubated with a sample of a tissue preparation enriched in a particular receptor (1 to 5 mg tissue) in a buffered medium (0.2 to 5 ml). During the incubation, the radioligands bind to the receptor. When equilibrium of binding is reached, the receptor bound radioactivity is separated from the non-bound radioactivity, and the receptor bound activity is counted. The interaction of the test compounds with the receptors is assessed in competition binding experiments. Various concentrations of the test compound are added to the incubation mixture containing the tissue preparation and the radioligand. Binding of the radioligand will be inhibited by the test compound in proportion to its binding affinity and its concentration. The affinities of the compounds for the 5-HT2 receptors were measured by means of radioligand binding studies conducted with: (a) human cloned 5-HT2A receptor, expressed in L929 cells using [^125I]R91150 as radioligand and (b) human cloned 5-HT2C receptor, expressed in CHO cells using [^3H]mesulergine as radioligand.

[2] = target: T2, human Dopamine D2L receptor (Homo sapiens, UniProt P14416); test: In vitro binding affinity for human D2L receptor ([3H]Spiperone); details: human D2L receptor-transfected CHO cell membranes, [3H]Spiperone; for IC50: read-out: h-D2L (converted)
T2 construct: expressed in transfected cells; host or cells: CHO cells (frozen membranes)
T2 sequence (P14416 whole entry): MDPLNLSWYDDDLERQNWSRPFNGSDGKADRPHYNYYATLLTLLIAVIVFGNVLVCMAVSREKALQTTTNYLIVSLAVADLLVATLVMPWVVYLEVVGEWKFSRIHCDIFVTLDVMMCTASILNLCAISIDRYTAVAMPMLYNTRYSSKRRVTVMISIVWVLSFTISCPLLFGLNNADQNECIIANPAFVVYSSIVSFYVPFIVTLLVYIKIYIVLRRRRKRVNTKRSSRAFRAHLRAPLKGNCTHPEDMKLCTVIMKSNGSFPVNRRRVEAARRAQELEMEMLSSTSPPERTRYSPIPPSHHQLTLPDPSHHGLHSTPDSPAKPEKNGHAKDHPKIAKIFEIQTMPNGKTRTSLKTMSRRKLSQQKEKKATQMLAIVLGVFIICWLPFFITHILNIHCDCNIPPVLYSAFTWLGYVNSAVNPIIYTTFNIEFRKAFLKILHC
Procedure: Frozen membranes of human Dopamine D2L receptor-transfected CHO cells were thawed, briefly homogenised using an Ultra-Turrax T25 homogeniser and diluted in Tris-HCl assay buffer containing NaCl, CaCl2, MgCl2, KCl (50, 120, 2, 1, and 5 mM respectively, adjusted to pH 7.7 with HCl) to an appropriate protein concentration optimised for specific and non-specific binding. Radioligand [^3H]Spiperone (NEN, specific activity ˜70 Ci/mmol) was diluted in assay buffer at a concentration of 2 nmol/L. Prepared radioligand (50 μl), along with 50 μl of either the 10% DMSO control, Butaclamol (10-6 mol/l final concentration), or compound of interest, was then incubated (30 min, 37° C.) with 400 μl of the prepared membrane solution. Membrane-bound activity was filtered through a Packard Filtermate harvester onto GF/B Unifilterplates and washed with ice-cold Tris-HCl buffer (50 mM; pH 7.7; 6×0.5 ml). Filters were allowed to dry before adding scintillation fluid and counting in a Topcount scintillation counter. Percentage specific bound and competition binding curves were calculated using S-Plus software (Insightful).

NET = target: T3, NET (Rattus norvegicus, UniProt Q9WTR4); test: In vitro determination of NET reuptake inhibition ([3H]Nixosetine binding, rat brain cortex membranes)
T3 construct: Cortex from rat brain was collected and homogenised; from tissue; host or cells: rat brain cortex membranes
T3 sequence (Q9WTR4 1-597): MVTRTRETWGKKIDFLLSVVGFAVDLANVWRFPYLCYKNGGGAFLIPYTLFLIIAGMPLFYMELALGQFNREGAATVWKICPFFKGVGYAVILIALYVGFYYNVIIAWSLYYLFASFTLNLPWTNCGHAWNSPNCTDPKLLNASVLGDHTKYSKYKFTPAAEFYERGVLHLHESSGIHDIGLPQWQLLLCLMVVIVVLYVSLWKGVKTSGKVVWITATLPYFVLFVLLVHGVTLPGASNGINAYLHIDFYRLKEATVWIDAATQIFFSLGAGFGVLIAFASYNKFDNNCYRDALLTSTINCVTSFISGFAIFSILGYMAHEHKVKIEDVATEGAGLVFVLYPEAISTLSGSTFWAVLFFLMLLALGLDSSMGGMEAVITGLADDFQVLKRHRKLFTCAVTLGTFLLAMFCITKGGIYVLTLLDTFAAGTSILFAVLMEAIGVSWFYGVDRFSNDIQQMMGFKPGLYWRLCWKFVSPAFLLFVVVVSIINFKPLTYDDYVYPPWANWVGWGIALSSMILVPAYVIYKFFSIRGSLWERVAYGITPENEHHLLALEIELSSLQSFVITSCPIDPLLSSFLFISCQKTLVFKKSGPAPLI
Procedure: Cortex from rat brain was collected and homogenised using an Ultra-Turrax T25 and a Dual homogeniser in ice-cold homogenising buffer containing Tris, NaCl and KCl (50 mM, 120 mM and 5 mM, respectively, pH 7.4) prior to dilution to an appropriate protein concentration optimised for specific and non-specific binding. […] Membrane-bound activity was detected by filtration through a Packard Filtermate harvester onto GF/B Unifilterplates, washed with ice-cold Tris-HCl buffer, containing NaCl and KCl (50 mM, 120 mM and 4 mM; pH 7.4; 6×0.5 ml). Filters were allowed to dry for 24 h before adding scintillation fluid. Scintillation fluid was allowed to saturate filters for 24 h before counting in a Topcount scintillation counter. Percentage specific bound and competition binding curves were calculated using S-Plus software (Insightful).

[3] = target: T4, human cloned 5-HT2C receptor, expressed in CHO cells (Homo sapiens, UniProt P28335); test: In vitro radioligand binding affinity for 5-HT2C receptor ([3H]mesulergine); details: human cloned 5-HT2C receptor in CHO cells, [3H]mesulergine; for IC50: read-out: h-5HT2C (converted)
T4 construct: expressed in transfected cells; host or cells: CHO cells
T4 sequence (P28335 33-458): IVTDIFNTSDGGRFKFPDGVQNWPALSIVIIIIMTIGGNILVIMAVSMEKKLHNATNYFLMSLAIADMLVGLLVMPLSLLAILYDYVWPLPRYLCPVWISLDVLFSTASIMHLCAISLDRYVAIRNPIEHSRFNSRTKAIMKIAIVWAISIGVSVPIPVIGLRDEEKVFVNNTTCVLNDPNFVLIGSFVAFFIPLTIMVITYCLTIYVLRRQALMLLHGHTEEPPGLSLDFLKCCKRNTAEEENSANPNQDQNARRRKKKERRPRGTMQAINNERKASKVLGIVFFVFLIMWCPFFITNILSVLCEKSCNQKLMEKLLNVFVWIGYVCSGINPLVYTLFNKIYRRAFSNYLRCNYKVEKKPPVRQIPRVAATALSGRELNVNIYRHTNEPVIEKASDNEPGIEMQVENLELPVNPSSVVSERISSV
Procedure: The interaction of the compounds of Formula (I) with 5-HT2A and 5-HT2C receptors was assessed in in vitro radioligand binding experiments. […] During the incubation, the radioligands bind to the receptor. When equilibrium of binding is reached, the receptor bound radioactivity is separated from the non-bound radioactivity, and the receptor bound activity is counted. The interaction of the test compounds with the receptors is assessed in competition binding experiments. Various concentrations of the test compound are added to the incubation mixture containing the tissue preparation and the radioligand. Binding of the radioligand will be inhibited by the test compound in proportion to its binding affinity and its concentration.

Compound: O=C1CO[C@H]2c3cc(F)ccc3Cc3ccccc3[C@H]2C1 [compound 31, (4aR,13bR)-12-fluoro-4,4a,9,13b-tetrahydrodibenzo[3,4:6,7]cyclohepta[1,2-b]pyran-3(2H)-one]
- melting point: 146 to 148 °C

Compound: CN(C)[C@@H]1CO[C@H]2c3cc(F)ccc3Cc3ccccc3[C@H]2C1 [compound 32, (3S,4aR,13bR)-12-fluoro-N,N-dimethyl-2,3,4,4a,9,13b-hexahydrodibenzo[3,4:6,7]-cyclohepta[1,2-b]pyran-3-amine]
- IC50 [1]: 676 nM
- melting point: 58 to 59 °C
- IC50 [2]: > 1000 nM
- pIC50 (NET): 7.71
- IC50 [3]: 132 nM

Compound: CN(C)C[C@H]1C[C@@H]2c3ccccc3Cc3ccc(F)cc3[C@H]2N1CCO [compound 39, 2-((2R,3aR,12bS)-2-[(dimethylamino)methyl]-11-fluoro-3,3a,8,12b-tetrahydrodibenzo-[3,4:6,7]cyclohepta[1,2-b]pyrrol-1(2H)-yl)ethanol]
- IC50 [1]: 87.1 nM
- melting point: 88 to 90 °C
- IC50 [2]: > 1000 nM
- pIC50 (NET): 6.90
- IC50 [3]: 46.8 nM

Compound: CNC1CO[C@H]2c3cc(F)ccc3Cc3ccccc3[C@H]2C1 (stereo in doubt) [compound 33, (3R,4aR,13bR)-12-fluoro-N-methyl-2,3,4,4a,9,13b-hexahydrodibenzo[3,4:6,7]cyclo-hepta[1,2-b]pyran-3-amine]
- melting point: 55 to 56 °C

Compound: N[C@@H]1CO[C@H]2c3cc(F)ccc3Cc3ccccc3[C@H]2C1 [compound 30, (3S,4aR,13bR)-12-fluoro-2,3,4,4a,9,13b-hexahydrodibenzo[3,4:6,7]cyclohepta[1,2-b]pyran-3-amine]
- IC50 [1]: 269 nM
- melting point: 74 to 76 °C
- IC50 [2]: > 1000 nM
- pIC50 (NET): 6.52
- IC50 [3]: 145 nM

Compound: CN(C)C[C@@H]1C[C@@H]2c3ccccc3Cc3ccc(F)cc3[C@H]2[S@@+]1[O-] [compound 26, [(2S,3aR,12bS)-11-fluoro-1-oxido-3,3a,8,12b-tetrahydro-2H-dibenzo[3,4:6,7]-cyclohepta[1,2-b]thien-2-yl]-N,N-dimethylmethanamine]
- IC50 [1]: > 10000 nM
- IC50 [2]: > 10000 nM
- pIC50 (NET): < 5.00
- IC50 [3]: > 10000 nM

Compound: CNC[C@H]1CC[C@@H]2c3ccccc3Cc3ccc(F)cc3[C@H]2O1 [compound 46, [(2R,4aR,13bS)-12-fluoro-2,3,4,4a,9,13b-hexahydrodibenzo[3,4:6,7]cyclohepta-[1,2-b]pyran-2-yl]-N-methylmethanamine]
- IC50 [1]: 13.8 nM
- IC50 [2]: 6310 nM
- pIC50 (NET): 6.40
- IC50 [3]: 5.89 nM

Compound: COC(=O)N1[C@@H](CN(C)C)C[C@@H]2c3ccccc3Cc3ccc(F)cc3[C@H]21 [36a, Methyl (2R,3aR, 12bS)-2-[(dimethylamino)methyl]-11-fluoro-3,3a,8,12b-tetrahydro dibenzo[3,4:6,7]cyclohepta[1,2-b]pyrrole-1(2H)-carboxylate]
- h-5HT2A [1]: <6
- h-D2L [2]: <6
- NET Reuptake Inhibition (NET): 6.16
- h-5HT2C [3]: <6

Compound: O[C@H]1CO[C@H]2c3cc(F)ccc3Cc3ccccc3[C@H]2C1 [compound 29, (3R,4aR,13bR)-12-fluoro-2,3,4,4a,9,13b-hexahydrodibenzo[3,4:6,7]cyclohepta[1,2-b]-pyran-3-ol]
- melting point: 59 to 61 °C

Compound: CN(C)C[C@H]1C[C@@H]2c3ccccc3Cc3ccc(F)cc3[C@H]2N1C=O [36c]
- h-5HT2A [1]: 6.26
- h-D2L [2]: 5.31
- NET Reuptake Inhibition (NET): 6.65
- h-5HT2C [3]: 7.11

Compound: CN1C[C@@H]2C[C@@H]3c4ccccc4Cc4ccc(F)cc4[C@H]3N2C1 [compound 1, (4aS,13bR,14aS)-6-fluoro-2-methyl-1,2,3,4a,9,13b,14,14a-octahydrodibenzo-[3′,4′:6′,7′]cyclohepta[1′,2′:4,5]pyrrolo[1,2-c]imidazole]
- IC50 [1]: 115 nM
- IC50 [2]: 2240 nM
- pIC50 (NET): 6.94
- IC50 [3]: 151 nM

Compound: Fc1ccc2c(c1)[C@@H]1[C@H](C[C@@H]3CNC(=S)N31)c1ccccc1C2 [compound 8, (4aS,13bR,14aR)-6-fluoro-1,4a,9,13b,14,14a-hexahydrodibenzo[3 ′,4′:6′,7′]cyclohepta-[1′,2′:4,5]pyrrolo[1,2-c]imidazole-3(2H)-thione]
- pIC50 [1]: 7.07
- melting point: 150 to 151 °C
- IC50 [2]: > 10000 nM
- NET Reuptake Inhibition (NET): 5.66
- IC50 [3]: 251 nM

Compound: Fc1ccc2c(c1)[C@@H]1[C@H](C[C@H]3CNC(=S)N31)c1ccccc1C2 [compound 3, (4aS,13bR,14aS)-6-fluoro-1,4a,9,13b,14,14a-hexahydrodibenzo-[3′,4′:6′,7′]cyclohepta-[1′,2′:4,5]pyrrolo[1,2-c]imidazole-3(2H)-thione]
- IC50 [1]: > 1000 nM
- IC50 [2]: > 1000 nM
- NET Reuptake Inhibition (NET): 5.24
- IC50 [3]: 240 nM

Compound: CNC[C@H]1C[C@@H]2c3ccccc3Cc3ccc(F)cc3[C@H]2N1C=O [compound 38, (2R,3aR,12bS)-11-fluoro-2-[(methylamino)methyll]-3,3a,8,12b-tetrahydrodibenzo-[3,4:6,7]cyclohepta[1,2-b]pyrrole-1 (2H)-carbaldehyde]
- IC50 [1]: 631 nM
- IC50 [2]: 7080 nM
- pIC50 (NET): 6.31
- IC50 [3]: 186 nM
